This passage reports TGI results from PubChem BioAssay (NCI).

SMILES strings stand for the structures.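 Values below derive from 48-hour exposures of cells grown in 96-well plates, with endpoints linearly interpolated between the two concentrations bracketing the appropriate inhibition level. TGI marks complete inhibition of growth.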

Assay in all cases: NCI-60 cell line screen, 48 h
Assay [1] has as its system DLD-1 colon.
Assay [2] relates to DMS 114 small cell lung.
Assay [3] has as its system DMS 273 small cell lung.
Assay [4] deals with HOP-18 NSCLC.
Assay [5] relates to KM20L2 colon.
Assay [6] relates to LXFL 529 NSCLC.
Assay [7] concerns M19-MEL melanoma.
The subject of assay [8] is XF 498 CNS.
The subject of assay [9] is RXF-631 renal.

As to `CCOC(=O)C1C(c2ccc([N+](=O)[O-])cc2)NC(c2ccc([N+](=O)[O-])cc2)C(C(=O)OC)S1(=O)=O` (centres undefined), the TGI in [1], in assay [2], in assay [3], in assay [4], in assay [5] and in assay [6] was greater than 100 µM in each case. Further, the TGI in [7] and in assay [8] was greater than 100 µM throughout.
Consider `Nc1ccc(C(=O)NN2C(=O)C(Cl)C2c2ccccc2O)cc1` (centres undefined), for which the TGI in assay [1] is greater than 100 µM; in assay [2], 79.6 µM; in [3] it was greater than 100 µM; in assay [5] it was greater than 100 µM; in assay [6], greater than 100 µM; in assay [7], greater than 100 µM. This molecule showed a TGI in assay [8] greater than 100 µM.
Turning to `CSC(=N)N1N=C2c3ccccc3CC[C@@H]2[C@@H]1c1ccccc1`, the TGI in [1] worked out at 31.7 µM; in assay [2] it was 28.7 µM; in assay [3], 28.5 µM; in [4], 47.8 µM; in assay [5], 25.6 µM; in [6], 24.2 µM. In addition, the TGI in assay [7] is 29.4 µM; in [8], 30.6 µM.
With `CCCCCCCCCCCCNC1(C)CNCCCNCCNCCCNC1`, the TGI in assay [1] came out at 3.07 µM; in assay [3], 1.6 µM; in [4], 3.07 µM; in [5], 3.1 µM; in assay [6], 3.05 µM; in assay [7], 3.13 µM. The TGI in assay [9] was 3.57 µM; in assay [8], 3.35 µM.
As to `CNC(=O)CN(CC(N)=O)C(=O)NC`, the TGI in assay [1], in [3], in assay [5], in assay [6], in assay [7] and in assay [9] was greater than 100 µM in each case. The TGI in assay [8] was greater than 100 µM.
Take `COc1cc(CCCC(O)COc2cccc3c2C2(O)CCCCCC32)cc(OC)c1` (centres undefined): the TGI in [1] was found to be 36.6 µM; in [2], 23.4 µM; in assay [3] it was 34.8 µM; in assay [4] it was 33.1 µM; in [5], 28.1 µM; in [6], 33.5 µM. In addition, the TGI in [7] came to 32.7 µM; in assay [8], 35.8 µM.
Take `O=S1c2ccc(Cl)cc2CC(SSC2Cc3cc(Cl)ccc3S(=O)c3ccccc32)c2ccccc21` (centres undefined): the TGI in assay [1], in assay [2], in assay [3], in assay [4], in assay [5] and in assay [6] was greater than 100 µM in each case. Also, the TGI in assay [7] and in assay [9] was greater than 100 µM throughout.
With `O=C1/C(=C/c2ccccc2)CCCC/C1=C\c1ccccc1`, the TGI in assay [1], in assay [2], in assay [3], in [4], in assay [5] and in [6] was greater than 100 µM throughout. Moreover, the TGI in [7], in [9] and in assay [8] was greater than 100 µM in each case.
Take `COC(=O)/C(=C/CC(N=C(c1ccccc1)c1ccccc1)C(=O)OC)N=C(c1ccccc1)c1ccccc1` (centres undefined): the TGI was greater than 100 µM in assay [1]; 82.1 µM in assay [2]; greater than 100 µM in assay [3]; greater than 100 µM in assay [6]; greater than 100 µM in [7]; greater than 100 µM in assay [8].
